According to patent publication US8466171B2, “Fused heterocyclic compounds useful as modulators of nuclear hormone receptor function” (Bristol-Myers Squibb Company, priority 2007, dated 2013):
Residue numbers refer to the chain shown, from its start.

Assays:
immature castrated rats [1] = conditions: cited from earlier work; for EC50 (increase in organ weight): immature castrated rats, dosing for 3 days
immature castrated rats [2] = experiment: Immature Rat Prostate Weight (IRPW) Assay; assay type: in vivo; conditions: TP versus free T
Source text: The activity of compounds of Formula (I) as AR antagonists can be investigated in an immature male rat model, as described in L. G. Hershberger et al., Proc. Soc.
Male sexual accessory organs, such as the prostate and seminal vesicles, play an important role in reproductive function. These glands are stimulated to grow and are maintained in size and secretory function by the continued presence of serum testosterone (T), which is the major serum androgen (>95%) produced by the Leydig cells in the testis under the control of the pituitary luteinizing hormone (LH) and follicle stimulating hormone (FSH). […] Adrenal androgens also contribute about 20% of total DHT in the rat prostate, compared to 40% of that in 65-year-old men. […] However, this is not a major pathway, since in both animals and humans, castration leads to almost complete involution of the prostate and seminal vesicles without concomitant adrenalectomy. […] […] […] Since the male sex organs are the tissues most responsive to modulation of the androgen activity, this model is used to determine the androgen dependent growth of the sex accessory organs in immature castrated rats.
Male immature rats (19-20 days old Sprague-Dawley, Harlan Sprague-Dawley) are castrated under metofane anesthesia. […] Experimental groups are as follows:
At the end of the 3-day treatment, the animals are sacrificed, and the ventral prostate weighed. […]

wild type AR = molecular target: T1, wild type AR (Homo sapiens, UniProt P10275); experiment: AR Binding Assay (whole cell, MDA-MB-453, competition with [3H]-DHT); conditions: MDA-MB-453 cells, competition with 2 nM [3H]-DHT, Cheng-Prusoff
T1 sequence (P10275 1-920 Q868H): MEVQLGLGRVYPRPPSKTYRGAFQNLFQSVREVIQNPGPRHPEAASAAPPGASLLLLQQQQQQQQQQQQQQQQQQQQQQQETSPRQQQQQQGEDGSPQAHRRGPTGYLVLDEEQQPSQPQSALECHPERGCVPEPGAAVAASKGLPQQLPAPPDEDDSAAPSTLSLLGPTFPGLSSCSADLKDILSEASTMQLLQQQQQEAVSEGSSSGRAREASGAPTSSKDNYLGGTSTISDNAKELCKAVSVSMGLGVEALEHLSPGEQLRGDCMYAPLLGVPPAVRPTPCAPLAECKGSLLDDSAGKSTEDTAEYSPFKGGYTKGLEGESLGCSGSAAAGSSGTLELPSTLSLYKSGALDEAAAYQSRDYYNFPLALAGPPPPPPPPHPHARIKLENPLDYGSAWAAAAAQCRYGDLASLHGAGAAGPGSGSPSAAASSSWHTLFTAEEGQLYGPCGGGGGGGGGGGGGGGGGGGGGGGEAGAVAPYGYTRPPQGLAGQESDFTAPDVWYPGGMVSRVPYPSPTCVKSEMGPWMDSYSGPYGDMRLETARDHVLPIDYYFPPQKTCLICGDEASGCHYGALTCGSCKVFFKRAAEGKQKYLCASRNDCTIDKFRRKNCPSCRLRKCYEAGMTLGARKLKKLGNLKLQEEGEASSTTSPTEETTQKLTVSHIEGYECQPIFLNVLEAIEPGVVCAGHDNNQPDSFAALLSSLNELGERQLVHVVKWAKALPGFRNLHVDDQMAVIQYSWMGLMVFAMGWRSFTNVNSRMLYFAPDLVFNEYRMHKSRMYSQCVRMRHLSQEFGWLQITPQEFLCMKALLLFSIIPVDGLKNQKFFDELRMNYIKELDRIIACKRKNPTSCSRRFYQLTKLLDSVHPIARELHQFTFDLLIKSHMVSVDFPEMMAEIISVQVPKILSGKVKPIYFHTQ
Method: For the whole cell binding assay, human breast adenocarcinoma MDA-MB-453 cells (American Type Culture Collection, Rockville, Md., ATCC #: HTB-131), expressing a functional endogenous wild type AR, are grown to near confluency in T-225 tissue culture flasks containing Dulbecco's Modified Eagle Medium (DMEM) (Mediatech CAT #45000-668) supplemented with 10% fetal bovine serum (FBS) (Invitrogen/GIBCO Life Science). In order to remove any endogenous ligand that might be complexed with the receptor in the cells, the tissue culture media is removed and the cells are incubated overnight at 37° C. in serum-free DMEM. The next day, cells are rinsed with magnesium and calcium free Phosphate Buffered Saline (PBS) (Invitrogen/GIBCO Life Science), harvested using Cell Stripper Buffer (Mediatech) and re-suspended in serum-free DMEM to achieve a final assay concentration of 4×10^5 cells/well of a 96-well assay plate. […] After the remaining media is removed, cells are washed three times with PBS and harvested onto UniFilter GF/B plates (PerkinElmer).
Two replicates are used for each sample. After 90 minutes at room temperature, cells are harvested by filtering through a GF/B filter plate (PerkinElmer) followed by washing with ice-cold 1×PBS (without calcium and magnesium) to remove unbound label. […] After correcting for non-specific binding, IC50 values are determined. The IC50 value is defined as the concentration of competing ligand needed to reduce specific binding by 50%. […] The Ki values are determined by application of the Cheng-Prusoff equation to the IC50 values where: […]
See e.g., D. Rodbard, Mathematics and Statistics of Ligand Assays: An Illustrated Guide: In: J. Langon and J. J. Clapp, eds., Ligand Assay, Masson Publishing U.S.A., Inc., New York, pp. 45-99 (1981).

androgen receptor (AR) = molecular target: T2, androgen receptor (AR) (Homo sapiens, UniProt P10275); experiment: MDA-MB-453 Androgen Receptor Transactivation Assay; assay type: cell-based; conditions: MDA-MB-453 cells, PSA-Luc reporter, 3 nM DHT, 48 hour incubation
T2 sequence (P10275 1-920): T1 sequence (P10275 1-920 Q868H) with H868Q
Source text: Compounds can be tested in a cell based transactivation assay used to measure the antagonism of androgen receptor (AR) transcriptional activity. […] The human breast adenocarcinoma MDA-MB-453 cell line (American Type Culture Collection, Rockville, Md., ATCC#: HTB-131), expressing a functional endogenous wild type AR, was transiently transfected with a reporter plasmid and tested for AR dependent transactivation activity in the absence or presence of test compounds. The pGL3 PSA-Luc reporter plasmid is comprised of the cDNA for the firefly luciferase gene and the upstream promoter sequences containing the androgen response elements (AREs) of the prostate specific antigen (PSA). This plasmid functions as a reporter for the transcription-modulating activity of the AR. In order to detect antagonists, the transactivation assay is conducted in the presence of constant concentration of the natural AR hormone (DHT) to induce a defined reporter signal. Addition of increasing concentrations of the suspected antagonist will decrease the reporter signal (luciferase activity).
MDA-MB-453 and 22 RV1 cells were maintained in DMEM (Cellgro, Cat. #10-014-CM) or RPMI 1640 (Gibco Cat. #11875-085) respectively and supplemented with 10% FBS (Invitrogen/GIBCO Life Science). Cells were bulk transfected in flasks with 1.3 ug/ml pGL3 PSA-Luc plasmid by using the Lipofectamine 2000 Reagent (Invitrogen, Cat. #11668-019) and serum-free Opti-MEM I media (Invitrogen, Cat#31985-070) according to the manufacturer's optimized conditions. Transfection was conducted at 37° C. with 5% CO2 for 16-18 hours. Following transfection, cells are washed, treated with trypsin, counted, and seeded in a 96-well plate at 30,000 cells per well in DMEM containing 10% Charcoal/Dextran Treated Fetal Bovine Serum (Gibco Cat. #11054-020) for MDA-MB-453 cells or RPMI 1640 (Gibco Cat. #110835) containing 10% FBS (Invitrogen/GIBCO Life Science) for 22 RV1 cells.
Following transfection, cells were incubated in the absence (blank) or presence (control) of 3 nM DHT (Sigma, Cat. #A-8380) and in the presence or absence of the standard antiandrogen bicalutamide or test compounds ranging in concentrations from 10^−10 to 10^−5M. Duplicates were used for each sample. The compound dilutions were performed by the Tecan Genesis (Tecan, Triangle Park, N.C.). After a 48 hour incubation, luciferase activity was measured using the Steady-Glo Luciferase Assay System (Promega, Cat. #E2550) according to manufacturer's specifications and luminescence was measured on a Packard TopCount (PerkinElmer). For each luciferase sample reading, the percent control (in absence of compounds) was calculated as: % Control=100×[averagesample−averageblank]/[averagecontrol−averageblank] Data was plotted and the IC50 value was defined as the concentration of compound that inhibited 50% of the luciferase activity for the controls.

Row | SMILES | serum concentrations of T and DHT relative to that of TP (immature castrated rats [1]; 2 hours after subcutaneous injection) [times] | EC50 (increase in organ weight) (immature castrated rats [1]) | potency relative to free T (immature castrated rats [2]) | Ki (wild type AR) [nM] | IC50 (androgen receptor (AR)) [nM]
1 | C[C@]12CC[C@H]3[C@@H](CCC4=CC(=O)CC[C@@]43C)[C@@H]1CC[C@@H]2O [T, testosterone] | 5 | about 1 mg | – | – | –
2 | CCC(=O)O[C@H]1CC[C@H]2[C@@H]3CCC4=CC(=O)CC[C@]4(C)[C@H]3CC[C@]12C [TP, testosterone propionate] | – | ~0.03 mg | 10-30 fold | – | –
3 | COC(=O)N[C@@H]1C[C@H]2O[C@@H]1[C@H]1[C@@H]2CN(c2ccc(C#N)c(C(F)(F)F)c2)S1(=O)=O [Example 41i, methyl((1S,2R,6R,7R,9R)-4-(4-cyano-3-(trifluoromethyl)phenyl)-3,3-dioxido-10-oxa-3-thia-4-azatricyclo[5.2.1.0^2,6]dec-9-yl)carbamate] | – | – | – | 354 | 8250
4 | N#Cc1ccc(N2C[C@@H]3[C@@H]4O[C@@H](C[C@@H]4O)[C@@H]3S2(=O)=O)cc1C(F)(F)F (single isomer, unassigned) [Example 37i] | – | – | – | 10 | 154
5 | N#Cc1ccc(N2C[C@H]3[C@@H]4O[C@@H](C[C@H]4O)[C@H]3S2(=O)=O)cc1C(F)(F)F (racemic) [Example 10iii] | – | – | – | 568 | 8320
6 | N#Cc1ccc(N2C[C@@H]3[C@@H]([C@@H]4O[C@H]3C[C@@H]4O)S2(=O)=O)cc1C(F)(F)F (single isomer, unassigned) [Example 38ii] | – | – | – | 10 | 141
